Tested on: TERT protein
Assay: Fluorescence polarization binding assay (inhibitory activity of selected Table 9 compounds)
Design: species or system Tribolium castaneum
Conditions: TERT-Chim21m complex 250 nM, cyanine 5-dCTP 10 nM, footnote: observed value corresponds to 50% of the actual inhibition value; for Inhibition at 5 μM (%)*: compound 5 μM; for Inhibition at 50 μM (%)*: compound 50 μM
Procedure: The TERT protein was expressed and purified as described herein. Protein was concentrated to 4.72 mg ml-l using an AMICON 30K cutoff filter (Millipore) and stored at −80° C. for binding assays.
For the binding assay, TERT protein was diluted to a 500 nM concentration in a solution of 50 mM Tris-HCl, pH 7.5, 200 mM KCl, and 20% glycerol. A 1.2-fold molar excess of the Chim21m RNA-DNA hybrid (Integrated DNA Technologies), containing the template for telomere extension (5′-rCrUrG rArCrC rUrGrA rCTT CGG TCA GGT-3′; SEQ ID NO:19), was then added to these samples and kept on ice. The cyanine 5-dCTP (Perkin Elmer) for the binding study was made up to a 20 nM concentration in sterile, RNase, DNase free water with […].
Compound screens were carried out as 30.5 μl reactions in a 384-well, round bottom plate (Thermo). Fifteen μl of TERT-Chim21m complex was first added to each well. Then 0.5 μl of library compound (ChemBridge) was added to this solution. Finally, 15 μl of the nucleotide-MgCl2 sample was added, and the solution mixed to provide final concentrations of 250 nM protein-nucleic acid, 10 nM cyanine 5-dCTP, and […]. Final compound concentrations were 50 μM and 5 μM. All additions were completed using a Janus 96/384 Modular Dispensing Tool (Perkin Elmer), performed in triplicate, and equilibrated for 40 minutes. Fluorescence polarization was measured at λex=620 nm and λem=688 nm on an EnVision Xcite Multilabel plate reader (Perkin Elmer). Polarization was calculated using the standard equation: P=(V−H)/(V+H), where P denotes polarization, V denotes vertical emission intensity, and H denotes horizontal emission intensity.

| SMILES | Inhibition at 5 μM (%)* | Inhibition at 50 μM (%)* |
| --- | --- | --- |
| CC(C(=O)Nn1cnnc1)N1C(=O)c2ccccc2C1=O (stereo not drawn) [2-(1,3-dioxo-1,3-dihydro-2H-isoindol-2-yl)-N-4H-1,2,4-triazol-4-ylpropanamide] | 4.74% | 27.38% |
| CCOc1cc(CNCc2ccco2)cc(Br)c1OCC(N)=O.Cl [2-(2-bromo-6-ethoxy-4-{[(2-furylmethyl)amino]methyl}phenoxy)acetamide hydrochloride] | 16.14% | 30.92% |
| COc1cc(CNCCc2ccccc2)cc(Br)c1OCC(N)=O [2-(2-bromo-6-methoxy-4-{[(2-phenylethyl)amino]methyl}phenoxy)acetamide] | 12.21% | 27.65% |
| CCOc1cc(CNCc2cccs2)cc(Cl)c1OCC(N)=O.Cl [2-(2-chloro-6-ethoxy-4-{[(2-thienylmethyl)amino]methyl}phenoxy)acetamide hydrochloride] | 17.68% | 49.10% |
| CCOc1cc(CNCc2cccnc2)cc(Cl)c1OCC(N)=O.Cl [2-(2-chloro-6-ethoxy-4-{[(3-pyridinylmethyl)amino]methyl}phenoxy)acetamide hydrochloride] | 14.87% | 38.78% |
| COc1cc(CNc2ccc3[nH]c(=O)[nH]c3c2)cc(Cl)c1OCC(N)=O [2-(2-chloro-6-methoxy-4-{[(2-oxo-2,3-dihydro-1H-benzimidazol-5-yl)amino]methyl}phenoxy)acetamide] | 15.94% | 29.33% |
| COc1cc(CNCc2cccs2)cc(Cl)c1OCC(N)=O.Cl [2-(2-chloro-6-methoxy-4-{[(2-thienylmethyl)amino]methyl}phenoxy)acetamide hydrochloride] | 10.94% | 41.26% |
| COc1cc(CNCc2ccncc2)cc(Cl)c1OCC(N)=O.Cl [2-(2-chloro-6-methoxy-4-{[(4-pyridinylmethyl)amino]methyl}phenoxy)acetamide hydrochloride] | 23.05% | 45.56% |
| COc1cc(CNCCN2CCOCC2)cc(Br)c1OCC(N)=O.Cl.Cl [2-[2-bromo-6-methoxy-4-({[2-(4-morpholinyl)ethyl]amino}methyl)phenoxy]acetamide dihydrochloride] | 18.27% | 30.23% |
| Cc1ccc(C(=O)Nn2cnnc2)c(Cl)c1 [2-chloro-4-methyl-N-4H-1,2,4-triazol-4-ylbenzamide] | 10.94% | 29.35% |
| CNCc1cc(Cl)c(OCC(N)=O)c(OC)c1.Cl [2-{2-chloro-6-methoxy-4-[(methylamino)methyl]phenoxy}acetamide hydrochloride] | 17.00% | 31.30% |
| COc1cc(CNC2C3CC4CC(C3)CC2C4)cc(Cl)c1OCC(N)=O (stereo not drawn) [2-{4-[(2-adamantylamino)methyl]-2-chloro-6-methoxyphenoxy}acetamide] | 13.73% | 35.18% |
| COc1cc(CNCc2ccccc2)cc(Cl)c1OCC(N)=O.Cl [2-{4-[(benzylamino)methyl]-2-chloro-6-methoxyphenoxy}acetamide hydrochloride] | 4.96% | 29.96% |
| NC(=O)CCN1C(=O)c2cccc3cccc(c23)C1=O [3-(1,3-dioxo-1H-benzo[de]isoquinolin-2(3H)-yl)propanamide] | 18.11% | 36.58% |
| O=C(Nn1cnnc1)c1cc(Br)ccc1Cl [5-bromo-2-chloro-N-4H-1,2,4-triazol-4-ylbenzamide] | 11.97% | 30.04% |
| CC(O)CNC(=O)C(=O)Nc1ccc2c(c1)OCO2 (stereo not drawn) [N-1,3-benzodioxol-5-yl-N′-(2-hydroxypropyl)ethanediamide] | 6.67% | 29.71% |
| O=C(NCCCO)C1CCCN(S(=O)(=O)c2ccc3ccccc3c2)C1 (stereo not drawn) [N-(3-hydroxypropyl)-1-(2-naphthylsulfonyl)-3-piperidinecarboxamide] | 13.44% | 30.42% |
| CCOC(=O)c1c(NC(=O)/C=C/C(N)=O)sc(C)c1C [ethyl 2-[(4-amino-4-oxo-2-butenoyl)amino]-4,5-dimethyl-3-thiophenecarboxylate] | 19.23% | 39.41% |

Reference: patent publication US9234230B2, “Screening method and compounds for modulating telomerase activity” (The Wistar Institute, priority 2010, dated 2016)
